Experimental data published in patent US9095138B2, “Isoxazoline insecticides” (E.I. du Pont de Nemours and Company, priority 2007, dated 2015).

How the values were obtained:
Type in all cases: in vivo
[1] = tested on: diamondback moth (Plutella xylostella); test: Test A: control of diamondback moth on radish plant, foliar spray; settings: sprayed at 50 ppm; neonate larvae on radish; assessed after 6 days; replicated three times
Text: For evaluating control of diamondback moth (Plutella xylostella) the test unit consisted of a small open container with a 12-14-day-old radish plant inside. This was pre-infested with about 50 neonate larvae that were dispensed into the test unit via corn-cob grits using a bazooka inoculator. The larvae moved onto the test plant after being dispensed into the test unit.
(§1) Test compounds were formulated using a solution containing 10% acetone, 90% water and 300 ppm X-77™ Spreader Lo-Foam Formula non-ionic surfactant containing alkylarylpolyoxyethylene, free fatty acids, glycols and isopropanol (Loveland Industries, Inc. Greeley, Colo., USA). The formulated compounds were applied in 1 mL of liquid through a SUJ2 atomizer nozzle with ⅛ JJ custom body (Spraying Systems Co. Wheaton, Ill., USA) positioned 1.27 cm (0.5 inches) above the top of each test unit. All experimental compounds in these tests were sprayed at 50 ppm, and the test was replicated three times. After spraying of the formulated test compound, each test unit was allowed to dry for 1 h and then a black, screened cap was placed on top. The test units were held for 6 days in a growth chamber at 25° C. and 70% relative humidity. Plant feeding damage was then visually assessed based on foliage consumed and a pest mortality rating was also counted and calculated for each test unit.

[2] = tested on: western flower thrips (Frankliniella occidentalis); test: Test E: control of western flower thrips on Soleil bean plant, contact and/or systemic; settings: adult thrips, assessed after 6 days, replicated three times
Procedure: as §1
For evaluating control of the western flower thrips (Frankliniella occidentalis) through contact and/or systemic means, the test unit consisted of a small open container with a 5-7 day old Soleil Bean plant inside. Test compounds were formulated and sprayed as described for Test A. All experimental compounds in these tests were sprayed at 250 or 50 ppm as noted, and the test was replicated three times. After spraying, the test units were allowed to dry for 1 hour and then 22-27 adult thrips were added to each unit and then a black, screened cap was placed on top. The test units were held for 6 days at 25° C. and 45-55% relative humidity. A mortality rating was assessed along with a plant damage rating for each test unit.

[3] = tested on: fall armyworm (Spodoptera frugiperda); test: Test B: control of fall armyworm on corn (maize) plant, foliar spray; settings: sprayed at 50 ppm; 1-day-old larvae on corn; replicated three times
Procedure: as §1
For evaluating control of fall armyworm (Spodoptera frugiperda) the test unit consisted of a small open container with a 4-5-day-old corn (maize) plant inside. This was pre-infested (using a core sampler) with 10-15 1-day-old larvae on a piece of insect diet. Test compounds were formulated and sprayed at 50 ppm as described for Test A and replicated three times. After spraying, the test units were maintained in a growth chamber and then the control efficacy was rated for each test unit as described for Test A.

SMILES | control efficacy (feeding damage or mortality): very good to excellent levels [1] | control efficacy (feeding damage or mortality): very good to excellent levels ([2]; sprayed at 50 ppm) | control efficacy (feeding damage or mortality): very good to excellent levels ([2]; sprayed at 250 ppm) | control efficacy (feeding damage or mortality): very good to excellent levels [3]
CC(=O)N(C)CCCNC(=O)c1ccc(C2=NOC(c3cc(Cl)cc(Cl)c3)(C(F)(F)F)C2)c2ccccc12 (racemic) [Compound 4] | 20% or less feeding damage or 80% or more mortality | 20% or less feeding damage or 80% or more mortality | 20% or less feeding damage or 80% or more mortality | 20% or less feeding damage or 80% or more mortality
O=C(NCCSCC(F)(F)F)c1ccc(C2=NOC(c3cccc(C(F)(F)F)c3)(C(F)(F)F)C2)c2ccccc12 (racemic) [Compound 22] | 20% or less feeding damage or 80% or more mortality | 20% or less feeding damage or 80% or more mortality | 20% or less feeding damage or 80% or more mortality | 20% or less feeding damage or 80% or more mortality
O=C(CNC(=O)c1ccc(C2=NOC(c3cc(Cl)cc(Cl)c3)(C(F)(F)F)C2)c2ccccc12)NCC1CC1 (stereo not drawn) [Compound 44] | 20% or less feeding damage or 80% or more mortality | 20% or less feeding damage or 80% or more mortality | 20% or less feeding damage or 80% or more mortality | 20% or less feeding damage or 80% or more mortality
COCCNC(=O)CNC(=O)c1ccc(C2=NOC(c3cc(Cl)cc(Cl)c3)(C(F)(F)F)C2)c2ccccc12 (stereo not drawn) [Compound 47] | 20% or less feeding damage or 80% or more mortality | 20% or less feeding damage or 80% or more mortality | 20% or less feeding damage or 80% or more mortality | 20% or less feeding damage or 80% or more mortality
CSCCNC(=O)CNC(=O)c1ccc(C2=NOC(c3cc(Cl)c(Cl)c(Cl)c3)(C(F)(F)F)C2)c2ccccc12 (stereo not drawn) [Compound 49] | 20% or less feeding damage or 80% or more mortality | – | 20% or less feeding damage or 80% or more mortality | 20% or less feeding damage or 80% or more mortality
O=C(CNC(=O)c1ccc(C2=NOC(c3cc(Cl)cc(Cl)c3)(C(F)(F)F)C2)c2ccccc12)NC1CC1 (stereo not drawn) [Compound 50] | 20% or less feeding damage or 80% or more mortality | 20% or less feeding damage or 80% or more mortality | 20% or less feeding damage or 80% or more mortality | 20% or less feeding damage or 80% or more mortality
C[C@@H](NC(=O)c1ccc(C2=NOC(c3cc(Cl)cc(Cl)c3)(C(F)(F)F)C2)c2ccccc12)C(=O)NC1CC1 (stereo partly drawn) [Compound 53] | 20% or less feeding damage or 80% or more mortality | 20% or less feeding damage or 80% or more mortality | 20% or less feeding damage or 80% or more mortality | 20% or less feeding damage or 80% or more mortality
O=C(CNC(=O)c1ccc(C2=NOC(c3cc(C(F)(F)F)cc(C(F)(F)F)c3)(C(F)(F)F)C2)c2ccccc12)NC1CC1 (stereo not drawn) [Compound 55] | 20% or less feeding damage or 80% or more mortality | 20% or less feeding damage or 80% or more mortality | 20% or less feeding damage or 80% or more mortality | 20% or less feeding damage or 80% or more mortality
C[C@@H](NC(=O)c1ccc(C2=NOC(c3cc(C(F)(F)F)cc(C(F)(F)F)c3)(C(F)(F)F)C2)c2ccccc12)C(=O)NC1CC1 (stereo partly drawn) [Compound 64] | 20% or less feeding damage or 80% or more mortality | 20% or less feeding damage or 80% or more mortality | 20% or less feeding damage or 80% or more mortality | 20% or less feeding damage or 80% or more mortality
C[C@@H](NC(=O)c1ccc(C2=NOC(c3cc(C(F)(F)F)cc(C(F)(F)F)c3)(C(F)(F)F)C2)c2ccccc12)C(N)=O (stereo partly drawn) [Compound 65] | 20% or less feeding damage or 80% or more mortality | 20% or less feeding damage or 80% or more mortality | – | 20% or less feeding damage or 80% or more mortality
C[C@@H](NC(=O)c1ccc(C2=NOC(c3cc(C(F)(F)F)cc(C(F)(F)F)c3)(C(F)(F)F)C2)c2ccccc12)C(=O)NCC1CC1 (stereo partly drawn) [Compound 66] | 20% or less feeding damage or 80% or more mortality | 20% or less feeding damage or 80% or more mortality | 20% or less feeding damage or 80% or more mortality | 20% or less feeding damage or 80% or more mortality
CC(NC(=O)c1ccc(C2=NOC(c3cc(C(F)(F)F)cc(C(F)(F)F)c3)(C(F)(F)F)C2)c2ccccc12)C(=O)NC1CC1 (stereo not drawn) [Compound 67] | 20% or less feeding damage or 80% or more mortality | 20% or less feeding damage or 80% or more mortality | 20% or less feeding damage or 80% or more mortality | 20% or less feeding damage or 80% or more mortality
CC(NC(=O)c1ccc(C2=NOC(c3cc(C(F)(F)F)cc(C(F)(F)F)c3)(C(F)(F)F)C2)c2ccccc12)C(=O)NCC1CC1 (stereo not drawn) [Compound 68] | 20% or less feeding damage or 80% or more mortality | 20% or less feeding damage or 80% or more mortality | 20% or less feeding damage or 80% or more mortality | 20% or less feeding damage or 80% or more mortality
CC(NC(=O)c1ccc(C2=NOC(c3cc(C(F)(F)F)cc(C(F)(F)F)c3)(C(F)(F)F)C2)c2ccccc12)C(N)=O (stereo not drawn) [Compound 69] | 20% or less feeding damage or 80% or more mortality | 20% or less feeding damage or 80% or more mortality | – | 20% or less feeding damage or 80% or more mortality
NC(=O)CNC(=O)c1ccc(C2=NOC(c3cc(C(F)(F)F)cc(C(F)(F)F)c3)(C(F)(F)F)C2)c2ccccc12 (stereo not drawn) [Compound 70] | 20% or less feeding damage or 80% or more mortality | 20% or less feeding damage or 80% or more mortality | – | 20% or less feeding damage or 80% or more mortality
O=C(CNC(=O)c1ccc(C2=NOC(c3cc(C(F)(F)F)cc(C(F)(F)F)c3)(C(F)(F)F)C2)c2ccccc12)NCC1CC1 (stereo not drawn) [Compound 71] | 20% or less feeding damage or 80% or more mortality | 20% or less feeding damage or 80% or more mortality | – | 20% or less feeding damage or 80% or more mortality
C[C@@H](NC(=O)c1ccc(C2=NOC(c3cc(Cl)cc(C(F)(F)F)c3)(C(F)(F)F)C2)c2ccccc12)C(=O)NC1CC1 (stereo partly drawn) [Compound 72] | 20% or less feeding damage or 80% or more mortality | 20% or less feeding damage or 80% or more mortality | 20% or less feeding damage or 80% or more mortality | 20% or less feeding damage or 80% or more mortality
